Data reported in patent US20060135587A1, “Method and compounds for promoting healing and reducing inflammation” (priority 2002, published 2006).
Where two headings read alike, the source gives them in different places.

Legend:
[1] = tested on: lesions of the gastric mucosa; assay: Gastric lesions induced by immobilization and hypothermia; assay type: in vivo, rats; parameters: % reduction of degree of ulceration / % reduction of ulcerated area: concentration or dose not given beside the values; conditions: Protective effect, 30 minutes before the test
Experimental: (§1) The models used gastric ulcers induced by
b) Immobilization and hypothermia (induced by water cooling);
(§2) The compounds were administered intraperitoneally at a dose of 20 mg/kg; in the cryogenic ulcer model compound 2 was administered either intraperitoneally (10 mg/kg) or orally (20 mg/kg twice daily, ie. a total of 40 mg/kg/day) and was compared to orally-administered gastrocepin (1 mg/kg twice daily, ie. a total of 2 mg/kg/day).

[2] = tested on: cryogenic ulcer of the gastric mucosa; assay: Cryogenic gastric ulcer in rats; assay type: in vivo; conditions: for reduction of the size of lesions in the gastric mucosa: day 14
Experimental: as §1
c) Ulcer created by local wounding with a cryogenic probe using a method similar to that described above for mouth ulcers.
as §2

[3] = tested on: cryogenic injuries of the sigmoid colon; assay: Cryogenic damage of the colon, model of ulcerative colitis; assay type: in vivo, rats; conditions: day 7
Experimental: A model of cryogenic damage of the colon was used in this experiment to simulate ulcerative colitis. Cryogenic injuries of the sigmoid colon of rats were induced by pressing a metal rod of […] in diameter cooled in liquid nitrogen to the serous membrane of the colon for 10 seconds under ether anaesthesia.
Tests were performed on 67 male rats weighing 180-200 g, with 8 animals in each group. Animals were kept in separate cages, with normal food and water ad libitum. The test compounds were administered orally on the second day after the operation, and then daily until healing was complete. Compound 2 or Compound 6 was administered to test animals at a dose of 20-50 mg/kg. The following agents were used for comparison:
The nature of the healing of the ulcer injury was examined morphologically on days 1, 3 and 7. […] The inflammatory process extends beyond the injured area into the adjacent areas, and beyond the peritoneum into fatty connective tissue.

myocardial infarction = assay: Clinical study in subacute phase of myocardial infarction (Example 24); assay type: in vivo, human
Experimental: The effect of Compound 2 therapy in patients suffering from the subacute phase of myocardial infarction (MI) was assessed. The patients were divided into two groups. There were no substantial differences between the groups in terms of age and basic features of necrotic foci. Each patient continued to receive the treatment which s/he had been given prior to commencement of the trial. Compound 2 was administered in addition to the previous treatment. The first group included 63 patients who received conventional therapy, i.e. nitrates, anticoagulants and/or hypotensive agents as appropriate, and the second group comprised 44 patients who were treated with Compound 2 at a dose of 600 mg per day from the 7th to the 28th day after diagnosis of myocardial infarction, in addition to receiving conventional treatment. The control group included 14 healthy men aged from 26 to 42. The average age of patients in the first group was 50.3 years, and in the second group, 49.5 years.
Clinical evidence from daily examinations of both groups and the results of electrocardiagraphic examination in 12 abductions were assessed over the entire observation period. A number of analyses were made on the 7th and 28th day of progress of MI, including clinical blood count, plasma bilirubin, sugar, creatinine, cholesterol, β3-lipoproteins, potassium and sodium, and urine analysis; the activity of the prothrombin complex and the time of re-calcification were also determined. Central haemodynamics were examined using the method of body integral rheography, whereby the stroke volume and cardiac indices were calculated. Indices of left ventricular contractility—terminal diastolic volume, ejection fraction, and the extent of systolic contraction of anteroposterior cavity dimensions (% ΔS)— were examined using the echography method using an Aloka SSD-119 apparatus (Japan). Central and intracardiac haemodynamics was investigated on the 1st, 7th; 14th, 21st and 28th days of the disease.

[4] = tested on: carbon tetrachloride-induced liver damage; assay: Carbon tetrachloride-induced liver damage in rats; assay type: in vivo; conditions: 20 mg/kg orally; CCl4 intoxication
Experimental: The prophylactic and therapeutic effects of Compound 2 on liver damage were examined in a carbon tetrachloride intoxication model. Liver dysfunction was induced by the […] injection of a liquid paraffin-based 50% carbon tetrachloride solution at a dose of 0.8 ml per 100 g of body mass daily for four days. Inbred male white rats weighing 200-220 g were treated with Compound 2 at a dose of 20 mg/kg given orally by intragastric tube on the eighth day after injection of carbon tetrachloride, and daily for four days thereafter. Control animals received carbon tetrachloride only. Animals were sacrificed 7 days after the last injection of carbon tetrachloride, when the morphological changes are most pronounced, and samples of liver were taken for histology.

bone plate defect = assay: Repair of bone plate defect of the rat lower jaw; assay type: in vivo, rats; conditions: 50 mg/kg over the course of three months
Experimental: A round or oval defect of the bone plate with a diameter of 2.5 mm was produced in the bone tissue of the rat lower jaw, using a dental drill under ether anaesthesia. In the post-operative period, the animals were kept in separate cages, with normal food and water ad libitum. The experiments were performed on 130 male rats weighing 180-200 g, with 10 rats in each group.
The animal test groups were treated with Compound 2 (50 or 100 mg/kg) or methyl uracil (50 mg/kg) 24 hours after the damage and on a daily basis for three months. […] The following groups were used:
The repair pattern of the injured bone was assessed morphologically on tissue sections after 30, 60 and 90 days. The sections were examined by light microscopy at magnifications of ×15, ×100, ×200, and ×400.

mice, rats, dogs = assay: Chronic toxicity studies over six months; assay type: in vivo; conditions: mice and rats 40 mg/kg per day subcutaneously, dogs 10 or 40 mg/kg per day orally
Experimental: No effect on body weight, weight of internal organs, structure or function of internal organs or blood indicators was observed. These studies were performed in mice (40 mg/kg per day, given subcutaneously), in rats (40 mg/kg per day, given subcutaneously) and in dogs (10 mg/kg or 40 mg/kg per day, given orally).

[5] = healing effect over the course of 14 days, twice daily, oral

Experimental for white male mice: The acute toxicity of 1,3-dialkyl-4,5-bis (N-methylcarbamoyl)imidazolium salts was assessed following intraperitoneal injection into 200 white male mice weighing 18 to 20 g. Dead animals were counted daily after the administration of the test substance.

Q: Which “% reduction of degree of ulceration” value [1] does the source give for `CC[n+]1cn(C)c(C(=O)NC)c1C(=O)NC.O=S(=O)([O-])c1ccccc1` [Compound 2, 1-methyl-3-ethyl-4,5-bis(N-methylcarbamoyl)-imidazolium benzenesulfonate] here?
A: 64%

Q: And the “% reduction of ulcerated area” value [1]?
A: 62%

Q: And the Area of lesion [1]?
A: 4.1 ± 0.8

Q: What about the “Average number of lesions per animal” value ([1]; 20 mg/kg intraperitoneally) of the same molecule?
A: 4.1 ± 0.9

Q: And the “reduction of the size of lesions in the gastric mucosa” value ([2]; 10 mg/kg intraperitoneally)?
A: 53%

Q: What about the “reduction of the size of lesions in the gastric mucosa” value ([2]; daily dose of 40 mg/kg orally) of the same molecule?
A: 51%

Q: And the “% reduction of degree of ulceration” value [2, 5]?
A: 62%

Q: And the “Average number of lesions per animal” value [2, 5]?
A: 9.4 ± 1.0

Q: And the “cases with complete synchronous regeneration” value ([3]; 20 mg/kg orally)?
A: 100%

Q: And the “animals with reduction of the wound area” value ([3]; 50 mg/kg)?
A: 67%

Q: What about the “left ventricular myocardial contractility” value (myocardial infarction; 600 mg per day combined with conventional therapy) of the same molecule?
A: increased the rate and extent of regeneration of left ventricular myocardial contractility

Q: And the clinical side effects (myocardial infarction; 600 mg per day, 7th to 28th day of the disease)?
A: did not produce any clinical side effects

Q: What about the serum bilirubin (myocardial infarction; 600 mg per day, does not exceed the upper limit of standard values) of the same molecule?
A: increase in unconjugated and hence total bilirubin in serum

Q: What about the Average mitotic index [4] of the same molecule?
A: 0.021 ± 0.001 arbitrary

Q: What about the “Elimination of glycogen from damaged zones (arbitrary)” value [4] of the same molecule?
A: 4.9 ± 0.4 arbitrary

Q: What about the “Necrosis of hepatocytes (arbitrary)” value [4] of the same molecule?
A: 2.7 ± 0.3 arbitrary

Q: And the “closing of bone defect” value (bone plate defect)?
A: the defect was almost fully closed by the newly formed primary callus bone tissue

Q: What about the chronic toxicity findings (mice, rats, dogs) of the same molecule?
A: had no irritating or allergic action, does not act on the central nervous system, and has no teratogenic, mutagenic or carcinogenic immunosuppressive activity

Q: And the LD50 (white male mice; intraperitoneal injection, white male mice, 14 days observation)?
A: 764 mg/kg

Q: What about the LD50 (white male mice; mice, given intraperitoneally, text b404) of the same molecule?
A: 1920 mg/kg
